This note sets out measurements from patent US20260085066A1, “LEUCINE RICH REPEAT KINASE 2 (LRRK2) DEGRADING COMPOUNDS AND ASSOCIATED METHODS OF USE” (Arvinas Operations, Inc., priority 2022, published 2026).

By Dmax is commonly meant the greatest extent of degradation seen. Read a low Dmax as shallow degradation.

Molecules are shown by their SMILES. A value given as a limit tells only on which side of the number the result lay.

The target in this assay is T1, WT LRRK2 (Homo sapiens, UniProt Q5S007).
T1 construct: endogenous in cells; host or cells: HEK293 cells with HiBit knocked into the endogenous LRRK2 gene, stably expressing firefly luciferase
T1 sequence (Q5S007 whole entry): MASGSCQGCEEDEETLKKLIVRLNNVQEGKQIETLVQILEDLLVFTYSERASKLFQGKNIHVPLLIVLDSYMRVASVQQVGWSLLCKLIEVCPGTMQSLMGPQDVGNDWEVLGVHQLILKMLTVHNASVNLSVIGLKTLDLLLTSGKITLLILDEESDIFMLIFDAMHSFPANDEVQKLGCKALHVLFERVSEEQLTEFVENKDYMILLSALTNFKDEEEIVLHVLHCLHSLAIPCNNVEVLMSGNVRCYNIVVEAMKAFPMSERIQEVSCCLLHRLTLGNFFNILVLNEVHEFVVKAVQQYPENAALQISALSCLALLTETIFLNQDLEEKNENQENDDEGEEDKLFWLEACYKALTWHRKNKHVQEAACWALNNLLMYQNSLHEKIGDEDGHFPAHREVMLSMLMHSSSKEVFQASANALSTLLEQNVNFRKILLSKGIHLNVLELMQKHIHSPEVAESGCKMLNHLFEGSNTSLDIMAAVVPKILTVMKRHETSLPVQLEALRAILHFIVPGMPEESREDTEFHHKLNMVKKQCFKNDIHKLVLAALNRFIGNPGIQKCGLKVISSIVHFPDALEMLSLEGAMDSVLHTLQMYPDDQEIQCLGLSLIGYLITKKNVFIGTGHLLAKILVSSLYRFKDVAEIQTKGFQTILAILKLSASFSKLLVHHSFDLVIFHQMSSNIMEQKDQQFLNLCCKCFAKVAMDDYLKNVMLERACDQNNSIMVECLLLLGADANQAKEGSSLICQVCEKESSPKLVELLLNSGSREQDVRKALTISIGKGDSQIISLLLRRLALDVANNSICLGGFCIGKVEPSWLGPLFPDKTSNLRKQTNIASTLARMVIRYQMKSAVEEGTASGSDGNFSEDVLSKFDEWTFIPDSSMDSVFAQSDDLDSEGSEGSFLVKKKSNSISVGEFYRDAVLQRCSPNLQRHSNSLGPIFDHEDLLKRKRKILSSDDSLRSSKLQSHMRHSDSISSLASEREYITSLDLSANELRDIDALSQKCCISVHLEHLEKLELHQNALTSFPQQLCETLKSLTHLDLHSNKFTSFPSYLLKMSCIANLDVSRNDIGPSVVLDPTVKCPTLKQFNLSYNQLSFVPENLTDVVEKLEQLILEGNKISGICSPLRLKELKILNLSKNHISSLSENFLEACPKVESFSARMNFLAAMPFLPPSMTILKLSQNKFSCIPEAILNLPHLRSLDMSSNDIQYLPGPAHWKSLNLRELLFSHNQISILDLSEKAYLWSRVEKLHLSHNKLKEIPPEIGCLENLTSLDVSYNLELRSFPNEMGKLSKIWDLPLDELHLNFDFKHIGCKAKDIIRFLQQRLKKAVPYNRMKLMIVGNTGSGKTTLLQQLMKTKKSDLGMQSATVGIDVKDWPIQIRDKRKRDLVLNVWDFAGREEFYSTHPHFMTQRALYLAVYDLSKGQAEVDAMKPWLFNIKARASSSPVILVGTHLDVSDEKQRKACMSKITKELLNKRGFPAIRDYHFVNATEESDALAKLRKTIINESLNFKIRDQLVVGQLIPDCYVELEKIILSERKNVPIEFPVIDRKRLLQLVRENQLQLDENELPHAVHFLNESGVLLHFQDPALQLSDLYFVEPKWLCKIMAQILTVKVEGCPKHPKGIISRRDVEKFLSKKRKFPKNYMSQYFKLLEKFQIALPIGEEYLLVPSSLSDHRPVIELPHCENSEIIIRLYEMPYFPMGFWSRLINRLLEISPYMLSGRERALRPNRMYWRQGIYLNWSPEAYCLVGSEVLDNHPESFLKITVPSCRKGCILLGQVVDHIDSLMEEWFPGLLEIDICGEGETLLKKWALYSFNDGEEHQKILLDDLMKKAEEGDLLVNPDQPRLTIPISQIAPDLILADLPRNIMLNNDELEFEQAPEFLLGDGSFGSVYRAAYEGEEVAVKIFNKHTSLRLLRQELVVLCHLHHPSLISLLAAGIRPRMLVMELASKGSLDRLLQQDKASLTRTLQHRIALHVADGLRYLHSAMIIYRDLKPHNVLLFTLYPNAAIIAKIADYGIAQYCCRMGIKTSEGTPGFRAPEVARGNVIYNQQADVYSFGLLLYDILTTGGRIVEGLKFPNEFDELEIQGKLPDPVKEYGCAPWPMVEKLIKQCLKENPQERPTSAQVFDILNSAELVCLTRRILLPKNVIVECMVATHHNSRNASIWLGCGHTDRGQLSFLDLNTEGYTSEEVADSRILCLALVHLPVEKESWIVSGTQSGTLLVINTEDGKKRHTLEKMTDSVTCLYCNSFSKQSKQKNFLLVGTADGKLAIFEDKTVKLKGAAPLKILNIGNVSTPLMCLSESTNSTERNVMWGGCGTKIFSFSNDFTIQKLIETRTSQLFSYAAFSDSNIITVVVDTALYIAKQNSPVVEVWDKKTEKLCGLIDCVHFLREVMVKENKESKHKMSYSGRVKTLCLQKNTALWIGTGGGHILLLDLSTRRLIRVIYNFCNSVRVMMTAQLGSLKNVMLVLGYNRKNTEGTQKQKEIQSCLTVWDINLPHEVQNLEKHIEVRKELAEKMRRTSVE
Put plainly: LRRK2 degradation HiBit assay in HEK293 cells (Nano-Glo Dual-Luciferase). The format is cell-based. The conditions noted are these: HiBit-tagged LRRK2 in HEK293 cells, 24 hours compound treatment.

Compound `CC1(Oc2ccc3[nH]nc(-c4cc(N5CCO[C@@H](CN6CCN(CC7CCN(c8ccc9c(c8F)CN(C8CCC(=O)NC8=O)C9=O)CC7)CC6)C5)ncn4)c3c2)CC1` (some centres unmarked) [Example 2] displayed a maximal degradation (Dmax) of 50 to 70%.

Turning to `CC1(Oc2ccc3[nH]nc(-c4cc(N5CCO[C@H](CN6CCN(CC7CCN(c8ccc9c(c8F)CN(C8CCC(=O)NC8=O)C9=O)CC7)CC6(C)C)C5)ncn4)c3c2)CC1` (some centres unmarked) [Example 3], the Dmax lay in the range of 50 to 70%.

`CC1(Cc2ccc3[nH]nc(-c4cc(N5CCC(CN6CCN(CC7CCN(c8ccc9c(c8F)CN(C8CCC(=O)NC8=O)C9=O)CC7)CC6)CC5)ncn4)c3c2)CC1` (centres unmarked) [Example 21]: the Dmax fell in the range of 50 to 70%.

For `CC1(Oc2ccc3[nH]nc(-c4cc(N5CCC(O[C@H]6CC[C@H](CC7CCN(c8ccc9c(c8F)CN(C8CCC(=O)NC8=O)C9=O)CC7)CC6)CC5)ncn4)c3c2)CC1` (some centres unmarked) [Example 29], the Dmax is ≥ 70%.

Compound `CC1(Oc2ccc3[nH]nc(-c4cc(N5CCN(CCN6CCN(CC7CCN(c8ccc9c(c8F)CN(C8CCC(=O)NC8=O)C9=O)CC7)CC6)CC5)ncn4)c3c2)CC1` (centres unmarked) [Example 8] had a Dmax of 50 to 70%.

Compound `CC1(Oc2ccc3[nH]nc(-c4cc(N5CCC(C[C@H]6CC[C@H](OC7CCN(c8ccc9c(c8F)CN(C8CCC(=O)NC8=O)C9=O)CC7)CC6)CC5)ncn4)c3c2)CC1` (some centres unmarked) [Example 23] yielded a Dmax of 50 to 70%.

As to `CC1(Oc2ccc3[nH]nc(-c4cc(N5CCN(CC(F)(F)C6CCN(CC7CCN(c8ccc9c(c8F)CN(C8CCC(=O)NC8=O)C9=O)CC7)CC6)CC5)ncn4)c3c2)CC1` (centres unmarked) [Example 15], the Dmax was 50 to 70%.

Compound `CC1(Oc2ccc3[nH]nc(-c4cc(N5CCC(O[C@H]6CC[C@@H](CC7CCN(c8ccc9c(c8F)CN(C8CCC(=O)NC8=O)C9=O)CC7)CC6)CC5)ncn4)c3c2)CC1` (some centres unmarked) [Example 27] displayed a Dmax of 50 to 70%.

`CC1(Oc2ccc3[nH]nc(-c4cc(N5CCN(C[C@H]6CC[C@H](CN7CCN(c8ccc9c(c8F)CN(C8CCC(=O)NC8=O)C9=O)CC7)OC6)CC5)ncn4)c3c2)CC1` (some centres unmarked) [Example 10] returned a Dmax of 50 to 70%.

In turn, `CC1(Oc2ccc3[nH]nc(-c4cc(N5CCN(C[C@@H]6CCN(CC7CCN(c8ccc9c(c8F)CN(C8CCC(=O)NC8=O)C9=O)CC7)C[C@@H]6F)CC5)ncn4)c3c2)CC1` (some centres unmarked) [Example 9] showed a maximal degradation (Dmax) of 50 to 70%.

Take `CC1(Oc2ccc3[nH]nc(-c4cc(N5CCC(C[C@H]6CC[C@@H](OC7CCN(c8ccc9c(c8F)CN(C8CCC(=O)NC8=O)C9=O)CC7)CC6)CC5)ncn4)c3c2)CC1` (some centres unmarked) [Example 22, 3-[4-fluoro-5-[4-[4-[[1-[6-[5-(1-methylcyclopropoxy)-1H-indazol-3-yl]pyrimidin-4-yl]-4-piperidyl]methyl]cyclohexoxy]-1-piperidyl]-1-oxo-isoindolin-2-yl]piperidine-2,6-dione]: the Dmax was ≥ 70%.

With `CC1(Cc2ccc3[nH]nc(-c4cc(N5CCC(CN6CCN(CC7CCN(c8ccc9c(c8F)CN(C8CCC(=O)NC8=O)C9=O)CC7)CC6(C)C)CC5)ncn4)c3c2)CC1` (centres unmarked) [Example 25], the Dmax was < 50%.

For the compound `CC1(Oc2ccc3[nH]nc(-c4cc(N5CCN(C[C@H]6CC[C@H](OC7CCN(c8ccc9c(c8)CN(C8CCC(=O)NC8=O)C9=O)CC7)CC6)CC5)ncn4)c3c2)CC1` (some centres unmarked) [Example 14, 3-[5-[4-[4-[[4-[6-[5-(1-methylcyclopropoxy)-1H-indazol-3-yl]pyrimidin-4-yl]piperazin-1-yl]methyl]cyclohexoxy]-1-piperidyl]-1-oxo-isoindolin-2-yl]piperidine-2,6-dione], the Dmax fell in the range of 50 to 70%.

Compound `CC1(Oc2ccc3[nH]nc(-c4cc(N5CCN(C[C@@H]6CN(CC7CCN(c8ccc9c(c8F)CN(C8CCC(=O)NC8=O)C9=O)CC7)CCO6)CC5)ncn4)c3c2)CC1` (some centres unmarked) [Example 13] yielded a maximal degradation (Dmax) of 50 to 70%.

`Cc1cc(N2CCC(O[C@H]3CC[C@H](CN4CCN(c5cc(-c6n[nH]c7ccc(OC8(C)CC8)cc67)ncn5)CC4)CC3)CC2)c(F)c2c1C(=O)N(C1CCC(=O)NC1=O)C2` (some centres unmarked) [Example 18, 3-(4-fluoro-7-methyl-5-(4-(((1r,4r)-4-((4-(6-(5-(1-methylcyclopropoxy)-1H-indazol-3-yl)pyrimidin-4-yl)piperazin-1-yl)methyl)cyclohexyl)oxy)piperidin-1-yl)-1-oxoisoindolin-2-yl)piperidine-2,6-dione]: the Dmax was ≥ 70%.

On to `CC1(Oc2ccc3[nH]nc(-c4cc(N5CCN(C[C@@H]6CN(CCC7CCN(c8ccc9c(c8F)CN(C8CCC(=O)NC8=O)C9=O)CC7)CCO6)CC5)ncn4)c3c2)CC1` (some centres unmarked) [Example 5], for which the Dmax was in the range of 50 to 70%.

As to `CC1(Cc2ccc3[nH]nc(-c4cc(N5CCC(CN6CCN(CC7CCN(c8ccc9c(c8F)CN(C8CCC(=O)NC8=O)C9=O)CC7)C(C)(C)C6)CC5)ncn4)c3c2)CC1` (centres unmarked) [Example 26], the Dmax fell in the range of 50 to 70%.

With `COc1c(N2CCC(O[C@H]3CC[C@H](CN4CCN(c5cc(-c6[nH]nc7ccc(CC8(C)CC8)cc67)ncn5)CC4)CC3)CC2)ccc2c1CN(C1CCC(=O)NC1=O)C2=O` (some centres unmarked) [Example 28], the Dmax fell in the range of 50 to 70%.

Turning to `CC1(Oc2ccc3[nH]nc(-c4cc(N5CCC(CN6CC[C@@H](CN7CCN(c8ccc9c(c8F)CN(C8CCC(=O)NC8=O)C9=O)CC7)[C@@H](F)C6)CC5)ncn4)c3c2)CC1` (some centres unmarked) [Example 7], the maximal degradation (Dmax) was 50 to 70%.

With `Cc1cc(N2CCC(CN3CCN(CC4CCN(c5cc(-c6n[nH]c7ccc(OC8(C)CC8)cc67)ncn5)CC4)C(C)(C)C3)CC2)c(F)c2c1C(=O)N(C1CCC(=O)NC1=O)C2` (centres unmarked) [Example 19], the greatest degradation seen (Dmax) lay within 50 to 70%.

`CC1(Oc2ccc3[nH]nc(-c4cc(N5CCC(O[C@@H]6CCN(CC7CCN(c8ccc9c(c8F)CN(C8CCC(=O)NC8=O)C9=O)CC7)C(C)(C)C6)CC5)ncn4)c3c2)CC1` (some centres unmarked) [Example 11]: the Dmax fell in the range of 50 to 70%.

The compound `COc1c(N2CCC(O[C@H]3C[C@H](N4CCC5(CC4)CN(c4cc(-c6[nH]nc7ccc(OC8(C)CC8)cc67)ncn4)C5)C3)CC2)ccc2c1CN(C1CCC(=O)NC1=O)C2=O` (some centres unmarked) [Example 4, 3-[4-methoxy-5-[4-[3-[2-[6-[5-(1-methylcyclopropoxy)-2H-indazol-3-yl]pyrimidin-4-yl]-2,7-diazaspiro[3.5]nonan-7-yl]cyclobutoxy]-1-piperidyl]-1-oxo-isoindolin-2-yl]piperidine-2,6-dione] returned a Dmax of 50 to 70%.

Compound `CC1(Oc2ccc3[nH]nc(-c4cc(N5CCO[C@H](CN6CCN(CC7CCN(c8ccc9c(c8F)CN(C8CCC(=O)NC8=O)C9=O)CC7)CC6)C5)ncn4)c3c2)CC1` (stereo partly drawn) [Example 1, 3-[4-fluoro-5-[4-[[4-[[(2R)-4-[6-[5-(1-methylcyclopropoxy)-1H-indazol-3-yl]pyrimidin-4-yl]morpholin-2-yl]methyl]piperazin-1-yl]methyl]-1-piperidyl]-1-oxo-isoindolin-2-yl]piperidine-2,6-dione] returned a maximal degradation (Dmax) of 50 to 70%.

`CC1(Oc2ccc3[nH]nc(-c4cc(N5CCN(C[C@H]6CN(CCC7CCN(c8ccc9c(c8F)CN(C8CCC(=O)NC8=O)C9=O)CC7)CCO6)CC5)ncn4)c3c2)CC1` (some centres unmarked) [Example 17]: the Dmax fell in the range of 50 to 70%.

In turn, `CC1(Oc2ccc3[nH]nc(-c4cc(N5CCN(C[C@H]6CN(CC7CCN(c8ccc9c(c8F)CN(C8CCC(=O)NC8=O)C9=O)CC7)CCO6)CC5)ncn4)c3c2)CC1` (stereo partly drawn) [Example 12, 3-[4-fluoro-5-[4-[[(2S)-2-[[4-[6-[5-(1-methylcyclopropoxy)-1H-indazol-3-yl]pyrimidin-4-yl]piperazin-1-yl]methyl]morpholin-4-yl]methyl]-1-piperidyl]-1-oxo-isoindolin-2-yl]piperidine-2,6-dione] gave a maximal degradation (Dmax) of 50 to 70%.

For the compound `CC1(Oc2ccc3[nH]nc(-c4cc(N5CCO[C@@H](CN6CCN(CC7CCN(c8ccc9c(c8F)CN(C8CCC(=O)NC8=O)C9=O)CC7)CC6(C)C)C5)cnn4)c3c2)CC1` (some centres unmarked) [Example 16], the greatest degradation seen (Dmax) lay within 50 to 70%.

On to `CC1(Cc2ccc3[nH]nc(-c4cc(N5CCC(OC6CCN(CC7CCN(c8ccc9c(c8F)CN(C8CCC(=O)NC8=O)C9=O)CC7)CC6)CC5)ncn4)c3c2)CC1` (centres unmarked) [Example 24], for which the Dmax is < 50%.

`Cc1cc(N2CCC(O[C@H]3CC[C@@H](CN4CCN(c5cc(-c6n[nH]c7ccc(OC8(C)CC8)cc67)ncn5)CC4)CC3)CC2)c(F)c2c1C(=O)N(C1CCC(=O)NC1=O)C2` (some centres unmarked) [Example 20, 3-(4-fluoro-7-methyl-5-(4-(((1s,4s)-4-((4-(6-(5-(1-methylcyclopropoxy)-1H-indazol-3-yl)pyrimidin-4-yl)piperazin-1-yl)methyl)cyclohexyl)oxy)piperidin-1-yl)-1-oxoisoindolin-2-yl)piperidine-2,6-dione]: the greatest degradation seen (Dmax) was < 50%.

`CC1(Oc2ccc3[nH]nc(-c4cc(N5CCN(CCC6(F)CCN(CC7CCN(c8ccc9c(c8F)CN(C8CCC(=O)NC8=O)C9=O)CC7)CC6)CC5)ncn4)c3c2)CC1` (centres unmarked) [Example 6, 3-[4-fluoro-5-[4-[[4-fluoro-4-[2-[4-[6-[5-(1-methylcyclopropoxy)-1H-indazol-3-yl]pyrimidin-4-yl]piperazin-1-yl]ethyl]-1-piperidyl]methyl]-1-piperidyl]-1-oxo-isoindolin-2-yl]piperidine-2,6-dione] displayed a Dmax of 50 to 70%.
